The record followed here is BindingDB's records for doi:10.1016/j.bmcl.2005.11.059 (University of Kansas, 2006).

As usually defined, the IC50 is the concentration that gives 50% inhibition.

The structures appear in SMILES notation.

Sequence of Toll-like receptor 4 (O00206 whole entry): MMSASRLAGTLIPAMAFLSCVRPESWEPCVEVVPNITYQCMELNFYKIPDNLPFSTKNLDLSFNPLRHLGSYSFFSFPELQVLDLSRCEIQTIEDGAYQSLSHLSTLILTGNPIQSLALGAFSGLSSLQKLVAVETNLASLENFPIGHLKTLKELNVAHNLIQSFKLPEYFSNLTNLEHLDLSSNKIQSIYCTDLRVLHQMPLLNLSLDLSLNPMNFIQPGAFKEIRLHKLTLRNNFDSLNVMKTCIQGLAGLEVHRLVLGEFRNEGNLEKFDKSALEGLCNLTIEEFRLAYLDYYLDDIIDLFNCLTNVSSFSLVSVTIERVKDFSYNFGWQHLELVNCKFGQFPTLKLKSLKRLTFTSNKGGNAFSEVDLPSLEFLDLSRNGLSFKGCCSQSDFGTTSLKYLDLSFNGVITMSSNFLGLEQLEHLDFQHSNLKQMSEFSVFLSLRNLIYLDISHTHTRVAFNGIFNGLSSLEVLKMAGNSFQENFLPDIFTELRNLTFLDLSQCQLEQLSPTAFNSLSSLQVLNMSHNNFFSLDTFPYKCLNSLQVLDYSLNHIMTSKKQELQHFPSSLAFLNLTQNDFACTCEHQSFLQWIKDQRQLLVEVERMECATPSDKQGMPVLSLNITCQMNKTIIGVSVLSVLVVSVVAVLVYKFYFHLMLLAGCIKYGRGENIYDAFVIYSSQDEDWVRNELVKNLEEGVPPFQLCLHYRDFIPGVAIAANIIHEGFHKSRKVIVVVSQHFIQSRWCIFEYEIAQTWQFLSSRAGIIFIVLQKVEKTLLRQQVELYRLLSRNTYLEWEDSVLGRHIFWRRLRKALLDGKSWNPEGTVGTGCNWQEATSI

This test concerns the target Toll-like receptor 4 (Homo sapiens, UniProt O00206). In words: Inhibition of induction of NF-kappaB by LPS in HEK293 cells co-transfected with TLR4, CD14 and MD2.
`CCCCCCCCOc1c(C=NN=C(N)N)ccc(C=NN=C(N)N)c1OCCCCCCCC` displayed an IC50 of 4.5 µM.

As for `CCCCCCOc1c(C=NN=C(N)N)ccc(C=NN=C(N)N)c1OCCCCCC`, the IC50 is 6.11 µM.

In turn, `CCCOc1c(C=NN=C(N)N)ccc(C=NN=C(N)N)c1OCCC` displayed an IC50 of 27.6 µM.

In turn, `NC(N)=NN=Cc1ccc(C=NN=C(N)N)c(O)c1O` yielded an IC50 of 59.1 µM. This IC50 is about 2.1-fold higher than that of the compound before.

The compound `CCCCOc1c(C=NN=C(N)N)ccc(C=NN=C(N)N)c1OCCCC` returned an IC50 of 9.4 µM.

Consider `NC(N)=NN=Cc1ccc(C=NN=C(N)N)cc1`, for which the 50% inhibitory concentration (IC50) turned out to be 164 µM.

`CCCCCOc1c(C=NN=C(N)N)ccc(C=NN=C(N)N)c1OCCCCC` returned an IC50 of 10.5 µM. Against the preceding compound, the IC50 is about 16-fold lower.

The compound `C=CCOc1c(C=NN=C(N)N)ccc(C=NN=C(N)N)c1OCC=C` came in with an IC50 of 61.4 µM.

With `CCOc1c(C=NN=C(N)N)ccc(C=NN=C(N)N)c1OCC`, the 50% inhibitory concentration (IC50) worked out at 35.6 µM.

Compound `COc1c(C=NN=C(N)N)ccc(C=NN=C(N)N)c1OC` came in with an IC50 of 175 µM.

Consider `CCCCCCCCCCCCCCOc1c(C=NN=C(N)N)ccc(C=NN=C(N)N)c1OCCCCCCCCCCCCCC`, for which 190 µM corresponded to half-maximal inhibition (IC50).
